In PubChem BioAssay (NCI):
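A five-concentration, 48-hour dose response in 96-well plates underlies each endpoint, interpolated linearly between surrounding concentrations. TGI: total growth inhibition.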

Key:
Experiment in all cases: DTP human tumour cell line panel, 48 h
UO-31 renal = system: UO-31 renal
OVCAR-5 ovarian = system: OVCAR-5 ovarian
COLO 205 colon = system: COLO 205 colon
SNB-75 CNS = system: SNB-75 CNS
OVCAR-4 ovarian = system: OVCAR-4 ovarian
NCI-H23 lung = system: NCI-H23 lung
A549 NSCLC = system: A549 NSCLC
IGROV1 ovarian = system: IGROV1 ovarian
HCT-15 colon = system: HCT-15 colon
SF-268 CNS = system: SF-268 CNS
CCRF-CEM leukemia = system: CCRF-CEM leukemia
HCT-116 colon = system: HCT-116 colon
SK-OV-3 ovarian = system: SK-OV-3 ovarian
RPMI-8226 leukemia = system: RPMI-8226 leukemia
SR leukemia = system: SR leukemia
786-0 renal = system: 786-0 renal
NCI-H460 lung = system: NCI-H460 lung
MOLT-4 leukemia = system: MOLT-4 leukemia
MDA-MB-231 breast = system: MDA-MB-231 breast
HOP-92 NSCLC = system: HOP-92 NSCLC
UACC-62 melanoma = system: UACC-62 melanoma
SK-MEL-28 melanoma = system: SK-MEL-28 melanoma
DU-145 prostate = system: DU-145 prostate
SF-539 CNS = system: SF-539 CNS
M14 melanoma = system: M14 melanoma
HOP-62 NSCLC = system: HOP-62 NSCLC
SNB-19 CNS = system: SNB-19 CNS
A498 renal = system: A498 renal
T-47D breast = system: T-47D breast
SK-MEL-2 melanoma = system: SK-MEL-2 melanoma
MDA-MB-435 = system: MDA-MB-435
EKVX NSCLC = system: EKVX NSCLC
CAKI-1 renal = system: CAKI-1 renal
OVCAR-3 ovarian = system: OVCAR-3 ovarian
MALME-3M melanoma = system: MALME-3M melanoma
UACC-257 melanoma = system: UACC-257 melanoma
HCC-2998 colon = system: HCC-2998 colon
SK-MEL-5 melanoma = system: SK-MEL-5 melanoma
SF-295 CNS = system: SF-295 CNS
RXF 393 renal = system: RXF 393 renal
TK-10 renal = system: TK-10 renal
ACHN renal = system: ACHN renal
SN12C renal = system: SN12C renal
LOX IMVI melanoma = system: LOX IMVI melanoma
MCF7 breast = system: MCF7 breast
K-562 leukemia = system: K-562 leukemia
SW-620 colon = system: SW-620 colon
MDA-N = system: MDA-N
U251 CNS = system: U251 CNS
NCI-H522 lung = system: NCI-H522 lung
PC-3 prostate = system: PC-3 prostate
KM12 colon = system: KM12 colon
HS 578T breast = system: HS 578T breast
HL-60(TB) leukemia = system: HL-60(TB) leukemia
HT29 colon = system: HT29 colon
NCI-H226 lung = system: NCI-H226 lung
NCI/ADR-RES ovarian = system: NCI/ADR-RES ovarian
OVCAR-8 ovarian = system: OVCAR-8 ovarian

## CCOC(=O)C(=CNC(=S)c1ccncc1)C(=O)OCC
UO-31 renal
  TGI: > 100 µM
OVCAR-5 ovarian
  TGI: > 100 µM
COLO 205 colon
  TGI: > 100 µM
SNB-75 CNS
  TGI: > 100 µM
OVCAR-4 ovarian
  TGI: > 100 µM
NCI-H23 lung
  TGI: > 100 µM
A549 NSCLC
  TGI: > 100 µM
IGROV1 ovarian
  TGI: > 100 µM
HCT-15 colon
  TGI: > 100 µM
SF-268 CNS
  TGI: > 100 µM
CCRF-CEM leukemia
  TGI: > 100 µM
HCT-116 colon
  TGI: > 100 µM
SK-OV-3 ovarian
  TGI: > 100 µM
RPMI-8226 leukemia
  TGI: > 100 µM
SR leukemia
  TGI: > 100 µM
786-0 renal
  TGI: > 100 µM
NCI-H460 lung
  TGI: > 100 µM
MOLT-4 leukemia
  TGI: > 100 µM
MDA-MB-231 breast
  TGI: > 100 µM
HOP-92 NSCLC
  TGI: > 100 µM
UACC-62 melanoma
  TGI: > 100 µM
SK-MEL-28 melanoma
  TGI: > 100 µM
DU-145 prostate
  TGI: > 100 µM
SF-539 CNS
  TGI: > 100 µM
M14 melanoma
  TGI: > 100 µM
HOP-62 NSCLC
  TGI: > 100 µM
SNB-19 CNS
  TGI: > 100 µM
A498 renal
  TGI: > 100 µM
T-47D breast
  TGI: > 100 µM
SK-MEL-2 melanoma
  TGI: > 100 µM
MDA-MB-435
  TGI: > 100 µM
EKVX NSCLC
  TGI: > 100 µM
CAKI-1 renal
  TGI: > 100 µM
OVCAR-3 ovarian
  TGI: > 100 µM
MALME-3M melanoma
  TGI: > 100 µM
UACC-257 melanoma
  TGI: > 100 µM
HCC-2998 colon
  TGI: > 100 µM
SK-MEL-5 melanoma
  TGI: > 100 µM
SF-295 CNS
  TGI: > 100 µM
RXF 393 renal
  TGI: > 100 µM
TK-10 renal
  TGI: > 100 µM
ACHN renal
  TGI: > 100 µM
SN12C renal
  TGI: > 100 µM
LOX IMVI melanoma
  TGI: > 100 µM
MCF7 breast
  TGI: > 100 µM
K-562 leukemia
  TGI: > 100 µM
SW-620 colon
  TGI: > 100 µM
MDA-N
  TGI: > 100 µM
U251 CNS
  TGI: > 100 µM
NCI-H522 lung
  TGI: > 100 µM
PC-3 prostate
  TGI: > 100 µM
KM12 colon
  TGI: > 100 µM
HS 578T breast
  TGI: > 100 µM
HL-60(TB) leukemia
  TGI: > 100 µM

## CCOC1CCC2C(CCC(/C=C/c3ccc(O)c4ncccc34)N2C)C1 (centres undefined)
UO-31 renal
  TGI: > 100 µM
OVCAR-5 ovarian
  TGI: > 100 µM
COLO 205 colon
  TGI: 11.9 µM
NCI-H23 lung
  TGI: 66 µM
A549 NSCLC
  TGI: > 100 µM
HT29 colon
  TGI: > 100 µM
IGROV1 ovarian
  TGI: > 100 µM
HCT-15 colon
  TGI: > 100 µM
SF-268 CNS
  TGI: > 100 µM
CCRF-CEM leukemia
  TGI: > 100 µM
RPMI-8226 leukemia
  TGI: > 100 µM
SR leukemia
  TGI: > 100 µM
786-0 renal
  TGI: > 100 µM
NCI-H460 lung
  TGI: > 100 µM
MOLT-4 leukemia
  TGI: > 100 µM
NCI-H226 lung
  TGI: > 100 µM
HOP-92 NSCLC
  TGI: 59.7 µM
UACC-62 melanoma
  TGI: > 100 µM
SK-MEL-28 melanoma
  TGI: > 100 µM
DU-145 prostate
  TGI: > 100 µM
SF-539 CNS
  TGI: 29.2 µM
M14 melanoma
  TGI: > 100 µM
HOP-62 NSCLC
  TGI: > 100 µM
SNB-19 CNS
  TGI: > 100 µM
NCI/ADR-RES ovarian
  TGI: > 100 µM
T-47D breast
  TGI: 62 µM
EKVX NSCLC
  TGI: 90.4 µM
OVCAR-8 ovarian
  TGI: > 100 µM
MALME-3M melanoma
  TGI: > 100 µM
HCC-2998 colon
  TGI: > 100 µM
SK-MEL-5 melanoma
  TGI: > 100 µM
SF-295 CNS
  TGI: > 100 µM
TK-10 renal
  TGI: > 100 µM
ACHN renal
  TGI: > 100 µM
SN12C renal
  TGI: > 100 µM
MCF7 breast
  TGI: > 100 µM
K-562 leukemia
  TGI: > 100 µM
SW-620 colon
  TGI: > 100 µM
MDA-N
  TGI: > 100 µM
U251 CNS
  TGI: > 100 µM
NCI-H522 lung
  TGI: 5.89 µM
PC-3 prostate
  TGI: > 100 µM
KM12 colon
  TGI: 95.2 µM
HS 578T breast
  TGI: 51.6 µM
HL-60(TB) leukemia
  TGI: > 100 µM
